The values that follow come from ChEMBL document CHEMBL1152135, “New synthesis and evaluation of enantiomers of 7-methyl-2-exo-(3'-iodo-5'-pyridinyl)-7-azabicyclo[2.2.1]heptane as stereoselective ligands for PET imaging of nicotinic acetylcholine receptors” (Bioorg Med Chem Lett, 2008).

This assay can be described thus: Displacement of [3H]epibatine from nAChR in rat cortical membrane. In kind it is cell membranes. Background: Loss of bound radioactivity is the signal in a displacement assay; it reports binding, not function.

`Clc1ccc(C2CC3CCC2N3)cn1` (stereo not given) [EPIBATIDINE]: the Ki came to 0.046 nM.

`CN1[C@@H]2CC[C@@H]1[C@@H](c1cncc(I)c1)C2` (stereo in doubt; (-)-5) returned a Ki of 1.68 nM.

The compound `Ic1cncc([C@H]2C[C@H]3CC[C@H]2N3)c1` (stereo in doubt; (+)-4) registered a Ki of 0.048 nM.

For `Ic1cncc([C@H]2C[C@H]3CC[C@H]2N3)c1` (stereo in doubt; (-)-4), the affinity, expressed as Ki, was 0.045 nM.

`CN1[C@@H]2CC[C@@H]1[C@@H](c1cncc(I)c1)C2` (stereo in doubt; (+)-5): the affinity, expressed as Ki, was 0.055 nM. This Ki and that of the compound before are within 1.5-fold of each other.

One may read the Ki as the dissociation constant of the complex between target and ligand, obtained from inhibition or displacement. Read a low Ki as higher affinity.
